Active and inactive are the calls of the source. No cut-off for these calls is given here.
Legend:
NCI-H460 = experiment: Growth inhibition of Homo sapiens (human) NCI-H460 cells after 48 hr by [3H]-thymidine incorporation assay; assay type: functional
MDA-MB-231 [1] = experiment: Growth inhibition of estrogen receptor negative Homo sapiens (human) MDA-MB-231 cells after 48 hr by [3H]-thymidine incorporation assay; assay type: functional
MCF7 [2] = experiment: Growth inhibition of estrogen receptor positive Homo sapiens (human) MCF7 cells after 48 hr by [3H]-thymidine incorporation assay; assay type: functional
MCF7 [3] = experiment: Antiproliferative activity against estrogen receptor positive Homo sapiens (human) MCF7 cells in steroid free medium after 48 hr by SRB assay; assay type: functional, cell-based
MCF7 [4] = experiment: Antiproliferative activity against estrogen receptor positive Homo sapiens (human) MCF7 cells in complete medium after 48 hr by SRB assay; assay type: functional, cell-based
MDA-MB-231 [5] = experiment: Antiproliferative activity against estrogen receptor negative Homo sapiens (human) MDA-MB-231 cells after 48 hr by SRB assay; assay type: functional, cell-based
MCF7 [6] = experiment: Antiproliferative activity against estrogen receptor positive Homo sapiens (human) MCF7 cells after 48 hr by SRB assay; assay type: functional, cell-based
MDA-MB-231 [7] = experiment: Antiproliferative activity against estrogen receptor negative Homo sapiens (human) MDA-MB-231 cells at 0.05 uM after 48 hr by SRB assay; assay type: functional, cell-based
MCF7 [8] = experiment: Antiproliferative activity against estrogen receptor positive Homo sapiens (human) MCF7 cells at 0.05 uM after 48 hr by SRB assay; assay type: functional, cell-based
MCF7 [9] = experiment: Antiproliferative activity against estrogen receptor positive Homo sapiens (human) MCF7 cells in steroid free medium after 48 hr by SRB assay in presence of ER antagonist 4-OHT; assay type: functional, cell-based

| GI50 (NCI-H460) | GI50 (MDA-MB-231 [1]) | GI50 (MCF7 [2]) | SMILES | Activity (MCF7 [3]) | Activity (MCF7 [4]) | Activity (MDA-MB-231 [5]) | Activity (MCF7 [6]) | Activity (MDA-MB-231 [7]) | Activity (MCF7 [8]) | Activity (MCF7 [9]) |
| --- | --- | --- | --- | --- | --- | --- | --- | --- | --- | --- |
| 30.7 µM | 39 µM | 21.8 µM | CC(C)=CCOc1ccc2c(=O)c3ccccc3oc2c1OCC=C(C)C |  |  |  |  |  |  |  |
| 20.4 µM | 29.1 µM | 14.2 µM | CC(C)=CCOc1ccc2c(=O)c3ccccc3oc2c1O | Dose-dependent effect | Dose-dependent effect | Dose-dependent effect | Dose-dependent effect | Active | Active |  |
| 22 µM | 29 µM | 5.3 µM | CC1(C)CCc2cc3c(=O)c4ccccc4oc3c(O)c2O1 [DIHYDRO-12-HYDROXY-2,2-DIMETHYL-2H,6H-PYRANO[3,2-B]XANTHEN-6-ONE] | Dose-dependent effect | Dose-dependent effect | Dose-dependent effect | Dose-dependent effect | Active | Active | Active |

From ChEMBL document CHEMBL3046019, “Prenylated xanthones: antiproliferative effects and enhancement of the growth inhibitory action of 4-hydroxytamoxifen in estrogen receptor-positive breast cancer cell line” (2012)
